The text below walks through data of BindingDB's records for doi:10.1016/j.bmcl.2005.01.051 (Merck Research Laboratories, 2005).

The assay can be described thus: Inhibition of alphaIIb-beta3 integrin mediated platelet aggregation (PLAGGIN15).
For orientation: IC50 means the concentration needed to halve the response being measured. A lower IC50 goes with higher potency. The molecule `COc1ccc([C@@H](CCC[C@@H](O)CCc2ccc3c(n2)NCCC3)CC(=O)O)cn1` [(3S,7R)-7-Hydroxy-3-(6-methoxy-pyridin-3-yl)-9-(5,6,7,8-tetrahydro-[1,8]naphthyridin-2-yl)-nonanoic acid] had an IC50 greater than 10 µM. Under `COc1ccc([C@@H](CCC[C@H](O)CCc2ccc3c(n2)NCCC3)CC(=O)O)cn1` [(3S,7S)-7-Hydroxy-3-(6-methoxy-pyridin-3-yl)-9-(5,6,7,8-tetrahydro-[1,8]naphthyridin-2-yl)-nonanoic acid] stands greater than 10 µM. To `COc1ccc([C@@H](CCCC(=O)CCc2ccc3c(n2)NCCC3)CC(=O)O)cn1` [(S)-3-(6-Methoxy-pyridin-3-yl)-7-oxo-9-(5,6,7,8-tetrahydro-[1,8]naphthyridin-2-yl)-nonanoic acid] belongs greater than 10 µM.
